Laboratory results published in ChEMBL document CHEMBL4390666, “Chemical manipulations on the 1,4-dioxane ring of 5-HT1A receptor agonists lead to antagonists endowed with antitumor activity in prostate cancer cells” (Eur J Med Chem, 2019).
The source made the active and inactive calls. No cut-off for these calls is given here.

How the values were obtained:
[1] = target: T1, 5-hydroxytryptamine receptor 1A (Homo sapiens) (UniProt P08908); assay: Agonist activity at cloned human 5-HT1A receptor transfected in human HeLa cell membranes preincubated for 20 mins followed by [35S]GTPgammaS addition and measured after 30 mins by liquid scintillation counting relative to 8-OH-DPAT; assay type: functional
T1 sequence (whole entry): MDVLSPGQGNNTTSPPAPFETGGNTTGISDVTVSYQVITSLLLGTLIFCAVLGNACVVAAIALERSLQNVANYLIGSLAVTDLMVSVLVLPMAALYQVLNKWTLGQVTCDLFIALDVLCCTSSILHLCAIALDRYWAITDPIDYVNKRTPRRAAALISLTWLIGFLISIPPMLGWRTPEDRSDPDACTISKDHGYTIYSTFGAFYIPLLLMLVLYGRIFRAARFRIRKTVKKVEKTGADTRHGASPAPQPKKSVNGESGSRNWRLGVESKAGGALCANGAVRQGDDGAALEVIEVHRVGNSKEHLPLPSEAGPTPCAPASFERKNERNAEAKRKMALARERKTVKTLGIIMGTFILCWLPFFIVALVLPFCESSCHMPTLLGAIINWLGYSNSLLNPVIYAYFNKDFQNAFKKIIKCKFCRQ

[2] = target: T1, 5-hydroxytryptamine receptor 1A (Homo sapiens); assay: Agonist activity at cloned human 5-HT1A receptor transfected in human HeLa cell membranes assessed as stimulation of [35S]GTPgammaS binding preincubated for 20 mins followed by [35S]GTPgammaS addition and measured after 30 mins by liquid scintillation counting; assay type: functional
[3] = target: T2, Alpha-1A adrenergic receptor (Homo sapiens, UniProt P35348); assay: biochemical
T2 sequence (P35348 whole entry): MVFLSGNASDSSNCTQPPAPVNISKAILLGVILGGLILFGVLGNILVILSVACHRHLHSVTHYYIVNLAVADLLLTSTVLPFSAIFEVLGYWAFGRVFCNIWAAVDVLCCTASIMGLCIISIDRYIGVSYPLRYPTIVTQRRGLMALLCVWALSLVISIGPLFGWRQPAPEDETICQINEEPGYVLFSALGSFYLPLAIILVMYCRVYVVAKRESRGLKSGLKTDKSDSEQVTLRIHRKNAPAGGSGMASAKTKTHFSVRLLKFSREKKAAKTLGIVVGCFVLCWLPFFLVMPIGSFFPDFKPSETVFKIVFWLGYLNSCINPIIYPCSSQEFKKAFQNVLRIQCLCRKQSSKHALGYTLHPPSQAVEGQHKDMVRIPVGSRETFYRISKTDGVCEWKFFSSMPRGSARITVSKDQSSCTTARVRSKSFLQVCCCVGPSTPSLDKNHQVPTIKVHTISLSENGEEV
Description: Displacement of [3H]Prazosin from human recombinant alpha 1A adrenergic receptor expressed in CHO cells incubated for 30 mins by radioligand competition binding assay

[4] = target: T3, Alpha-1B adrenergic receptor (Homo sapiens, UniProt P35368); assay: biochemical
T3 sequence (P35368 whole entry): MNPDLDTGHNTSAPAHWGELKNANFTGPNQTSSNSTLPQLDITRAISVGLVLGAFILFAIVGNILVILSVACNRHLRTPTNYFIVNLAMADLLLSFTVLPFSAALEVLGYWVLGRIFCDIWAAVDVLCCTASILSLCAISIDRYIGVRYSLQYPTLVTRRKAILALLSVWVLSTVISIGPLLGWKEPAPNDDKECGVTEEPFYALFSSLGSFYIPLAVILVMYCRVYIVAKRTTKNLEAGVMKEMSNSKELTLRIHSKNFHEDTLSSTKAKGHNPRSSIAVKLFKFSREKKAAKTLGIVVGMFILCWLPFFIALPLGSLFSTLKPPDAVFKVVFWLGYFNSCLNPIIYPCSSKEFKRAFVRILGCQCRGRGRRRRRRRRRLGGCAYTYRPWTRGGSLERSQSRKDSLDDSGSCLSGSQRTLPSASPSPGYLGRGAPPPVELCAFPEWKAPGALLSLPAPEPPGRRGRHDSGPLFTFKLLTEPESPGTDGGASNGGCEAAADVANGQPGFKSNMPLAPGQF
Description: Displacement of [3H]Prazosin from human recombinant alpha 1B adrenergic receptor expressed in CHO cells incubated for 30 mins by radioligand competition binding assay

[5] = target: T4, Alpha-1D adrenergic receptor (Homo sapiens, UniProt P25100); assay: biochemical
T4 sequence (P25100 whole entry): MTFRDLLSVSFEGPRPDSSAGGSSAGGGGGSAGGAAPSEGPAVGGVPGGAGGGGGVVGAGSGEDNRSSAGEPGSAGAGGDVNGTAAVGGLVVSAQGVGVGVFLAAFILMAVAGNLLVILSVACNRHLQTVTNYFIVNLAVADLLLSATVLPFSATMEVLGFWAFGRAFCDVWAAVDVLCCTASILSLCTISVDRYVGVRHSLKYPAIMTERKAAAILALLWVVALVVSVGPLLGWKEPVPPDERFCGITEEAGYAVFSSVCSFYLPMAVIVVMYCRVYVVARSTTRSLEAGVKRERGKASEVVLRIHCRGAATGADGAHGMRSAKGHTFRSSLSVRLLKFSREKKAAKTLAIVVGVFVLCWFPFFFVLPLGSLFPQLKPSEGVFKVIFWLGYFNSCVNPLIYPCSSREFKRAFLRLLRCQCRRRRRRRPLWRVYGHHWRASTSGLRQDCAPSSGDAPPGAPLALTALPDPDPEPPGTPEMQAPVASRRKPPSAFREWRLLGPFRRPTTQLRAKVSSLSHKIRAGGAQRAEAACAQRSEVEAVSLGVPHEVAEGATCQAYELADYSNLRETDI
Description: Displacement of [3H]Prazosin from human recombinant alpha 1D adrenergic receptor expressed in CHO cells incubated for 30 mins by radioligand competition binding assay

[6] = target: T5, 5-hydroxytryptamine receptor 1A (Homo sapiens, UniProt P08908); assay: biochemical
T5 sequence (P08908 whole entry): T1 sequence (whole entry)

[7] = system: DU-145; assay: Inhibition of 5-HT-stimulated human DU145 cells proliferation at 5 to 10 uM incubated for 48 hrs by SRB assay; assay type: functional, cell-based
[8] = system: PC-3; assay: Inhibition of 5-HT-stimulated human PC3 cells proliferation at 5 to 10 uM incubated for 48 hrs by SRB assay; assay type: functional, cell-based
[9] = target: D(2) dopamine receptor (Homo sapiens, UniProt P14416); assay: Displacement of [3H]N-methylspiperone from human dopamine D2 receptor expressed in HEK293 cell membranes incubated for 1 hr by liquid scintillation counting
Chain of D(2) dopamine receptor (P14416 whole entry): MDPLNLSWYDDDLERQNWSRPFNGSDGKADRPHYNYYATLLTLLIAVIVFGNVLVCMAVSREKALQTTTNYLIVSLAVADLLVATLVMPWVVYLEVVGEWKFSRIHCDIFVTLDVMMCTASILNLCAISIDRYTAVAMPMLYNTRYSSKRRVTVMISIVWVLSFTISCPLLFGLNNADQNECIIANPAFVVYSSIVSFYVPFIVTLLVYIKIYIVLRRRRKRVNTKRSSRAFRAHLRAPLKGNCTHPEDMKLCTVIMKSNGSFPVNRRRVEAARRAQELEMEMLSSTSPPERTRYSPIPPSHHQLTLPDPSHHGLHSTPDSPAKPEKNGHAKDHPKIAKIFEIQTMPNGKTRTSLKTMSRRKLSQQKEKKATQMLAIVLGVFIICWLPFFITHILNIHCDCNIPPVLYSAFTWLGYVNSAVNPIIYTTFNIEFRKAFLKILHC

[10] = target: D(3) dopamine receptor (Homo sapiens, UniProt P35462); assay: Displacement of [3H]N-methylspiperone from human dopamine D3 receptor expressed in HEK293 cell membranes incubated for 1 hr by liquid scintillation counting
Chain of D(3) dopamine receptor (P35462 whole entry): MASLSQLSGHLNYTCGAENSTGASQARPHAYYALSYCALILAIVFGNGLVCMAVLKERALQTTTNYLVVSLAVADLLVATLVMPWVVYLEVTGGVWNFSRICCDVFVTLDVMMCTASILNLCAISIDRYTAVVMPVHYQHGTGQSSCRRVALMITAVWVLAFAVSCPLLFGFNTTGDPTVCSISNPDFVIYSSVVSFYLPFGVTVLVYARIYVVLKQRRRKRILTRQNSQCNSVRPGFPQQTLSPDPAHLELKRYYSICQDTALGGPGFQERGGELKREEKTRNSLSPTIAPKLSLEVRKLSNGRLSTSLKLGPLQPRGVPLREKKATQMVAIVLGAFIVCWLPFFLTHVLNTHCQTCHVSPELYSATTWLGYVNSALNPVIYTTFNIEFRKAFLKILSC

[11] = target: T6, D(4) dopamine receptor (Homo sapiens, UniProt P21917); assay: Displacement of [3H]N-methylspiperone from human dopamine D4 receptor expressed in HEK293 cell membranes incubated for 1 hr by liquid scintillation counting
T6 sequence (P21917 whole entry): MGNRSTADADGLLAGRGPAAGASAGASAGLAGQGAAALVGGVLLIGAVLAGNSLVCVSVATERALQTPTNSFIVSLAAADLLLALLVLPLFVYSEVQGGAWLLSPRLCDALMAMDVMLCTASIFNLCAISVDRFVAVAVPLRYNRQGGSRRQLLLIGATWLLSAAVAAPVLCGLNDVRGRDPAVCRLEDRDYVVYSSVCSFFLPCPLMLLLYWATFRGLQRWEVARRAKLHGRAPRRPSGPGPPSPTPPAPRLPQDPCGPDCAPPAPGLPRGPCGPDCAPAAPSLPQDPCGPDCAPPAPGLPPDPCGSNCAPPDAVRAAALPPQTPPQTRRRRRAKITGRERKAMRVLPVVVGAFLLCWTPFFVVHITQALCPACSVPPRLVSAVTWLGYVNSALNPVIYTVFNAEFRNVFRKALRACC

[12] = system: PC-3; assay: Growth inhibition of human PC3 cells incubated for 48 hrs by SRB assay; assay type: functional; conditions: PC-3, 48 h; for CC50: read-out: LC50 (the source's name)
[13] = system: DU-145; assay: Growth inhibition of human DU145 cells incubated for 48 hrs by SRB assay; assay type: functional; conditions: DU-145, 48 h; for CC50: read-out: LC50 (the source's name)
[14] = (§1) Growth inhibition of human fibroblast cells incubated for 48 hrs by SRB assay; assay type: cell-based; conditions: human fibroblast cells
[15] = system: Fibroblast; assay: as §1; assay type: cell-based; conditions: fibroblast, 48 h
[16] = system: PC-3; assay: Inhibition of norepinephrine-stimulated human PC3 cells proliferation at 5 to 10 uM incubated for 48 hrs by SRB assay; assay type: functional, cell-based
[17] = system: DU-145; assay: Inhibition of norepinephrine-stimulated human DU145 cells proliferation at 5 to 10 uM incubated for 48 hrs by SRB assay; assay type: functional, cell-based
[18] = target: T1, 5-hydroxytryptamine receptor 1A (Homo sapiens); conditions: HeLa

Row | SMILES | Ki [3] | Ki [4] | Ki [5] | Ki [6] | other results
1 | COc1ccccc1OCCNCC1OCCOC1(c1ccccc1)c1ccccc1 (stereo not drawn) | > 1000 nM | 67.6 nM | 7.41 nM | 3.98 nM | inhibition [7]: Active; inhibition [8]: Active; Ki [9]: 324 nM; Ki [10]: 537 nM; Ki [11]: 275 nM; GI50 [12]: 13000 nM; TGI [12]: 29000 nM; CC50 [12]: 68000 nM; GI50 [13]: 18000 nM; TGI [13]: 32000 nM; CC50 [13]: 55000 nM; GI50 at 48 h [14]: 30500 nM; LC50 [15]: 99600 nM; TGI [15]: 50200 nM; inhibition [16]: Active; inhibition [17]: Active; pKb [18]: 8.5
2 | COc1ccccc1N1CCN(C[C@H]2OCCOC2(c2ccccc2)c2ccccc2)CC1 | 355 nM | 380 nM | 89.1 nM | 12 nM | Ki [9]: 2190 nM; Ki [10]: 2880 nM; Ki [11]: 9770 nM; GI50 [12]: 25000 nM; TGI [12]: 78000 nM; CC50 [12]: 240000 nM; GI50 [13]: 35000 nM; TGI [13]: 80000 nM; CC50 [13]: 180000 nM; GI50 at 48 h [14]: > 300000 nM; LC50 [15]: > 300000 nM; TGI [15]: > 300000 nM; pKb [18]: 8.14
3 | COc1ccccc1N1CCN(C[C@H]2OCCO[C@H]2c2ccccc2)CC1 (relative stereo) | > 1000 nM | > 1000 nM | 191 nM | 70.8 nM | 
4 | COc1ccccc1N1CCN(C[C@H]2OCCO[C@@H]2c2ccccc2)CC1 (relative stereo) | > 1000 nM | > 1000 nM | 53.7 nM | 214 nM | 
5 | COc1cccc(OC)c1OCCNCC1OCCOC1(c1ccccc1)c1ccccc1 (stereo not drawn) | > 1000 nM | > 1000 nM | > 1000 nM | 66.1 nM | 
6 | COc1cccc(OC)c1OCCNCC1(c2ccccc2)COCCO1 (stereo not drawn) | > 1000 nM | > 1000 nM | > 1000 nM | > 1000 nM | 
7 | COc1ccccc1OCCNCC1COCC(c2ccccc2)(c2ccccc2)O1 (stereo not drawn) |  |  |  |  | pD2 [2]: 9.4; GI50 [12]: 26000 nM; TGI [12]: 64000 nM; CC50 [12]: 157000 nM; GI50 [13]: 23000 nM; TGI [13]: 42000 nM; CC50 [13]: 77000 nM; GI50 at 48 h [14]: 38400 nM; LC50 [15]: > 300000 nM; TGI [15]: 121600 nM
8 | c1ccc(OCCNCC2OCCOC2(c2ccccc2)c2ccccc2)cc1 (stereo not drawn) | > 1000 nM | > 1000 nM | 316 nM | 28.2 nM | Emax [1]: 32.9%; pD2 [2]: 6.71
9 | COc1ccccc1OCCNCC1(c2ccccc2)COCCO1 (stereo not drawn) | > 1000 nM | > 1000 nM | 69.2 nM | 75.9 nM | 
10 | COc1ccccc1N1CCN(CC2(c3ccccc3)COCCO2)CC1 (stereo not drawn) | > 1000 nM | > 1000 nM | > 1000 nM | 174 nM | 
11 | COc1ccccc1N1CCN(CC2COCC(c3ccccc3)(c3ccccc3)O2)CC1 (stereo not drawn) | 2.63 nM | 22.9 nM | 1.74 nM | 5.01 nM | Emax [1]: 39.3%; Ki [9]: 112 nM; Ki [10]: 257 nM; Ki [11]: 1380 nM; pD2 [2]: 7.01

Further lines, with some results ahead:

Row | Ki [3] | Ki [4] | Ki [5] | Ki [6] | SMILES | other results
12 | > 1000 nM | > 1000 nM | 126 nM | 20.4 nM | COc1ccccc1OCCNC[C@H]1OCCO[C@H]1c1ccccc1 (relative stereo) | Emax [1]: 24.3%; pD2 [2]: 7.13
13 | > 1000 nM | > 1000 nM | > 1000 nM | 269 nM | c1ccc(OCCNCC2(c3ccccc3)COCCO2)cc1 (stereo not drawn) | 
14 | > 1000 nM | > 1000 nM | 95.5 nM | 9.55 nM | COc1ccccc1OCCNC[C@H]1OCCO[C@@H]1c1ccccc1 (relative stereo) | pKb [18]: 8.2
15 | > 1000 nM | > 1000 nM | > 1000 nM | 214 nM | c1ccc(OCCNC[C@H]2OCCO[C@H]2c2ccccc2)cc1 (relative stereo) | 
16 | > 1000 nM | > 1000 nM | > 1000 nM | 55 nM | c1ccc(OCCNC[C@H]2OCCO[C@@H]2c2ccccc2)cc1 (relative stereo) | 
17 | > 1000 nM | > 1000 nM | > 1000 nM | 182 nM | COc1cccc(OC)c1OCCNC[C@H]1OCCO[C@H]1c1ccccc1 (relative stereo) | 
18 | > 1000 nM | > 1000 nM | > 1000 nM | 97.7 nM | COc1cccc(OC)c1OCCNC[C@H]1OCCO[C@@H]1c1ccccc1 (relative stereo) | 
